Laboratory results from patent publication US20240292836A1, “AGENTS FOR REPELLING, KNOCKING DOWN, AND/OR KILLING BLOOD-SUCKING ARTHROPODS AND USES THEREOF” (The United States of America, as represented by the …, priority 2023, published 2024).
“And” between values parts separate entries of the source, which are not always exact repeats. Equal entries are not always repeated.

Tests used:
[1] = test system: female Aedes aegypti adults; experiment: Arm-in-cage cloth-patch in vivo assay (topical repellency); details: for Minimum Effective Dose (MED): Mean ± SEM, lowest dosage with five or fewer bites through repellent-treated cloth in 1-minute exposure, at least three volunteers; for topical repellency (in words): initial screening dose of 0.187 mg/cm^2
From the text: Arm-in-Cage Test Cloth-Patch in vivo Assay Pyrethroid-susceptible yellow fever mosquitoes Ae. aegypti (Orlando strain) were reared in the United States Department of Agriculture Mosquito and Fly Research Unit in Gainesville, FL under standard protocols. Three to seven-day-old, starved female mosquitoes were collected using a “draw box” (Posey, K. and Schreck, C. E, 1981, “An airflow apparatus for selecting female mosquitoes for use in repellent and attraction studies” Mosquito News 41: 566-568; US. Department of Agriculture, 1977, Repellent activity of compounds submitted by Walter Reed Army Institute of Research. Part 1. Protection time and minimum effective dosage against Aedes aegypti mosquitoes. Tech. Bull. No. 1549) and were placed in cages at an approximate density 200 mosquitoes/cage. Repellency was determined according to a standard protocol (Bernier, U. R., et al, 2022. “Evaluation and application of repellent-treated uniform/clothing and textiles against vector mosquitoes,” In Advances in Arthropod Repellents (pp. 69-94). Academic Press) and reported as the minimum effective dosage (MED). […] A nylon leg stocking was placed over the arm to prevent direct contact of the repellent-treated cloth patch with the skin. […]. Cloth was treated by placing a rolled bandage (50 cm^2) into each vial containing 1 mL of solution and allowing the patch to absorb the solution completely. The cloth was taped over a 4 by 9-cm opening cut into a vinyl plastic sheet that was draped around the volunteers' arms and taped in place. The cloth was air-dried approximately 15 min before conducting each test. The work reported here is an average of the MED for at least three volunteers. Each volunteer covered his or her arm with a nylon stocking to avoid contact between the skin and the treated cloth and wore a rubber glove to prevent mosquito bites on the hand.
. The minimum effective dose (MED) was determined for each repellent and subject, defined as the lowest concentration that prevents biting). MEDs from each subject were pooled and reported as the average among all replicates/subjects with SEM. A minimum of 3 replicates were performed on at least three human subjects. Written informed consent was obtained for all human subjects used in this study in accordance with IRB protocol #20193320, as approved by the WCG™ IRB.
(§1) Statistical Analyses: Student's T-test was used to compare the means between tested compound and DEET and Icaridin in the arm-in-cage in vivo assay and neurophysiological study.

[2] = test system: female Aedes aegypti adults; experiment: High-throughput in vitro screening assay, knockdown and mortality; details: for KD50 (30 min), half-knockdown dose / KD50 (60 min), half-knockdown dose: dose per assay tube volume, 95% CI; for time at which knockdown began: FIG. 6A, 6B, 6D; for knockdown and mortality activities (in words): in vivo
[3] = test system: female Aedes aegypti adults; details: estimated from a previous report (Licciardi 2006); cited from earlier work
[4] = test system: female Aedes aegypti adults; experiment: High-throughput in vitro screening assay, spatial repellency; format: in vivo; details: for 30-minute RD50 compared with that of DEET: 30 minutes, α = 0.05; for RD50 (30 min), half-repellent dose / RD50 (60 min), half-repellent dose: dose per filter paper surface area, 95% CI; for spatial repellency (in words): highest-tested dose of 100 μg/cm^2
From the text: A high-throughput screening method for evaluating spatial repellency and vapor toxicity, described by Jiang S., et al. (2019, “High-Throughput Screening Method for Evaluating Spatial Repellency and Vapour Toxicity to Mosquitoes,” Med. Vet. Entomol. 33: 388-396), was used for this study. As shown in FIG. 2 of Jiang S., et al., assay tubes were constructed by covering 12.5 cm glass tubes on one side with netting secured by a rubber band. The tubes were used in horizontal orientation. Adult mosquitos 2-7 days old were anesthetized on ice for approximately 5 minutes and 16 females were transferred to each tube. The other end of the tube was then closed with netting and a rubber band.
The conical ends of 50 mL centrifuge tubes (Eppendorf, Enfield, Connecticut, USA) were cut at approximately the 10 mL mark to create the end caps for the assay tubes. […] For repellency tests, filter papers for the “untreated” side of the assay tube received pure acetone, whereas filter papers for the “treated” side received acetone solution containing a dissolved compound of interest. For knockdown tests, both filter papers were treated with acetone solution containing one or more compounds of interest. Acetone on both filter papers served as negative controls.
For repellency assays, filter papers were given 10 minutes of evaporation time before being placed into the end caps with forceps (Jiang S., et al. 2019, Supra). For knockdown assays, filter papers were given 5 minutes of evaporation time before being placed into the end caps. […] Assay tubes were capped such that the cap securely overlapped the glass but approximately 5 mm of space was left between the netting and the filter paper so that the mosquitos could not contact the filter paper.
Assay tubes were placed on a white polystyrene platform with wooden sticks glued flatly across it to prevent the tubes from rolling. A straight black line was drawn down the center of the platform and assay tubes were centered on the line at the beginning of the tests. In repellency assays, data were collected at 15, 30, and 60 minutes after the end caps were placed on the assay tubes. Assay tubes were not disturbed for the entire 60 minutes. At each time point, the number of mosquitos that remained on the treated side was visually assessed and recorded. The treated side was alternated with each set of tests. For repellency tests, DEET at a dose of 100 μg/cm^2 served as the positive control.
For the high-throughput in vitro screening assays, analyses were conducted with R version 4.2.2 statistical software (R Core Team, 2022, “R: a language and environment for statistical computing. R foundation for statistical computing,” Vienna, Austria). Concentrations were calculated in terms of filter paper surface area (μg/cm^2) for repellency assays and in terms of assay tube volume (μg/cm^3) for knockdown assays.
Half-repellent (RD50), half-knockdown (KD50), and half-lethal (LD50) doses were calculated from dose-response curves (DRCs) obtained by four-parameter log-logistic equation models generated using the drc package (Dose Response Curve Analyses Software; Ritz C. et al., 2015, “Dose-response analysis using R,” PLOS ONE 10: e0146021). For repellency test analysis, the upper and lower asymptotes for the proportion of mosquitos remaining on the treated side were fixed at 0.5 and 0, respectively. For KD and mortality test analysis, the upper and lower asymptotes for the proportion of mosquitos knocked down or killed were fixed at 1.0 and 0, respectively. To determine whether RD50, KD50, or LD50 values differed across compounds at each timepoint, a joint model assuming different values for each compound and a null model that assumed a single value for all compounds were compared with a likelihood ratio test.

[5] = test system: Aedes aegypti larvae central nervous system; experiment: Neurophysiological experiment, nerve firing of mosquito central nervous system
Experimental: Neurophysiological Experiment—Action on Mosquito Central Nervous System All compounds were screened at 100 μM on the central nervous system of 4th instar Aedes aegypti larvae. Nerve firing was reported as the percentage firing compared to a pre-application baseline period that was determined approximately 3 minutes prior to drug application, similar to methods outlined in Norris, E. J. and Bloomquist J. R. (2021, “Recording central neurophysiological output from mosquito larvae for neuropharmacological and insecticide resistance studies,” J. Insect Physiol. 135: 104319). […] Compound potency was characterized by “time-to-nerve block” defined as the first time point where significant nerve block was observed compared to the vehicle control via a Student T-test, p<0.05 as shown in Table 1 and FIG. 2.
as §1

[6] = at 25.00° C.; cited from earlier work
[7] = Vapor pressure; format: physicochemical; details: MFA versus MDMA
[8] = literature evaluations; cited from earlier work

Row | SMILES | Minimum Effective Dose (MED) [1] | KD50 (30 min), half-knockdown dose [2] [µg/mL] | KD50 (60 min), half-knockdown dose [2] [µg/mL] | 30-minute RD50 compared with that of DEET [4] | RD50 (30 min), half-repellent dose [4] [μg/cm^2] | RD50 (60 min), half-repellent dose [4] [μg/cm^2] | spatial repellency (in words) [4] | topical repellency (in words) [1] | knockdown and mortality activities (in words) [2] | further results
1 | CCN(CC)C(=O)c1cccc(C)c1 [DEET, N,N-diethyl-meta-toluamide, reference compound] | 0.0100±0.003 mg/cm^2 and 0.0100 mg/cm^2 | >15 | >15 | – | – | – | – | – | – | dose at which knockdown might begin [3]: approximately 15 μg/cm^3; mosquitoes repelled ([4]; 60 minutes, dose of 100 μg/cm^2): 100%
2 | COC(=O)c1ccccc1OC [M2MOB, methyl 2-methoxybenzoate] | 0.049 mg/cm^2 | >7 | >7 | not significantly different from that of DEET | – | – | – | – | – | Time to nerve block ([5]; 100 μM on central nervous system of 4th instar larvae): 24 min
3 | COC(=O)c1ccccc1[N+](=O)[O-] [M2NB, methyl 2-nitrobenzoate] | 0.025 mg/cm^2 | >7 | >7 | not significantly different from that of DEET | – | – | – | – | – | –
4 | COC(=O)c1ccccc1N(C)C [MDMA, methyl N,N-dimethyl anthranilate] | 0.039 mg/cm^2 | – | – | significantly lower than that of DEET | 6.58 | – | – | – | – | vapor pressure [6]: 0.01 mmHg
5 | COC(=O)c1ccccc1NC=O [MFA, methyl N-formylanthranilate] | 0.047 mg/cm^2 | – | – | – | >100 | >100 | did not show spatial repellencies | – | – | vapor pressure [6]: 0.000013 mmHg; vapor pressure, times lower than that of MDMA [7]: 769 times; safety (in words) [8]: No adverse effects to humans have been found
6 | CC(C)COC(=O)c1ccccc1 [iBB, iso-butyl benzoate] | >0.187 mg/cm^2 | 5.26 | 5.29 | not significantly different from that of DEET | – | – | – | did not show any topical repellencies | exhibited considerable knockdown and mortality activities | time at which knockdown began [2]: 5 min
7 | CC(C)CCOC(=O)c1ccccc1 [iPeB, iso-pentyl benzoate] | >0.187 mg/cm^2 | 3.71 | 3.40 | not significantly different from that of DEET | – | – | – | did not show any topical repellencies | exhibited considerable knockdown and mortality activities | time at which knockdown began [2]: 5 min
8 | CCCCOC(=O)c1ccccc1 [nBB, n-butyl benzoate] | 0.148 mg/cm^2 | – | 3.09 | – | >100 | >100 | did not show spatial repellencies | demonstrated repellency at doses lower than 0.187 mg/cm^2 on at least one test subject | exhibited considerable knockdown and mortality activities | time at which knockdown began [2]: 5 min
9 | CCCCCCOC(=O)c1ccccc1 [nHB, n-hexyl benzoate] | >0.187 mg/cm^2 | 7.06 | 4.72 | not significantly different from that of DEET | – | – | – | did not show any topical repellencies | exhibited considerable knockdown and mortality activities | –
10 | CCCCCOC(=O)c1ccccc1 [nPeB, n-pentyl benzoate] | >0.187 mg/cm^2 | 4.77 | 3.98 | not significantly different from that of DEET | – | – | – | did not show any topical repellencies | exhibited considerable knockdown and mortality activities | nerve block (in words) ([5]; 100 μM, 4th instar larvae): Nerve block was produced by all compounds screened at this concentration, except for compound nPeB
11 | CCCOC(=O)c1ccccc1 [nPrB, n-propyl benzoate] | 0.250 mg/cm^2 | – | – | – | >100 | >100 | did not show spatial repellencies | demonstrated repellency at doses lower than 0.187 mg/cm^2 on at least one test subject | – | –
12 | CCCOC(=O)c1ccccc1NC=O [nPrFA, n-Propyl N-formylanthranilate] | 0.0028 mg/cm^2 | – | – | – | >100 | >100 | did not show any spatial repellencies | – | – | MED, times lower than the initial screening dose ([1]; relative to initial screening dose of 0.187 mg/cm^2): 64 times
